Measurements reported in patent publication US6627635B2, “Method of preventing abuse of opioid dosage forms” (priority 1997, dated 2003).

Legend:
[1] = in comparison to a 15 mg dose of hydrocodone
From the text: In certain preferred embodiments, the opioid agonist is hydrocodone.

[2] = test system: effects of morphine-like opioid agonist; settings: cited from earlier work
[3] = after oral doses; cited from earlier work
[4] = Simulated extractability of naltrexone HCl from hydrocodone bitartrate CR AcroContin tablets, 5 tablets in 5 mL solvent (HPLC recovery); type: physicochemical; settings: for extractable from the tablets at the higher pH's: high pH (substantially greater than pH 10, preferably above pH 11); for % Precipitated: 5 tablets in 5 mL
[5] = hydrochloride salt; cited from earlier work
[6] = cited from earlier work
[7] = test system: mu over delta sites; settings: cited from earlier work
[8] = pKa values of the drug substances
[9] = Simulated extractability of naltrexone HCl from hydrocodone bitartrate CR AcroContin tablets, 4 tablets in 25 mL solvent (HPLC recovery); settings: for solubility in acetone: poor recoveries; for dissolution in the solvents: all of the solvents except acetone
[10] = Extractability of naltrexone HCl (1.5 mg) from oxycodone HCl (15 mg), 5 tablets/5 mL solvent; type: physicochemical

CCC(=O)C(CC(C)N(C)C)(c1ccccc1)c1ccccc1 (centres unmarked) [Methadone]
Equianalgesic Doses of Opioids, Calculated Dose [1]: 9.0 mg

C=CCN1CC[C@]23c4c5ccc(O)c4O[C@H]2C(=O)CC[C@@]3(O)[C@H]1C5 [naloxone]
antagonism of morphine-like opioid agonist effects ([2]; 0.4-0.8 mg intramuscularly or intravenously in man): prevent or promptly reverse the effects of morphine-like opioid agonist
block of the effect of 25 mg of heroin ([2]; one mg intravenously): completely block

COc1ccc2c3c1O[C@H]1[C@@H](O)C=C[C@H]4[C@@H](C2)N(C)CC[C@@]341 [Codeine]
Equianalgesic Doses of Opioids, Calculated Dose [1]: 90.0 mg

C[C@H]1[C@H]2Cc3ccc(O)cc3[C@]1(C)CCN2CC1CC1 [cyclazocine]
duration of action [3]: ~24 h

O=C1CC[C@@]2(O)[C@H]3Cc4ccc(O)c5c4[C@@]2(CCN3CC2CC2)[C@H]1O5 [Naltrexone]
extractable from the tablets at the higher pH's [4]: about 10%
extractable from the tablets at the higher pH's ([4]; listed as Naltrexone Hydrochloride): ~10%
soluble in water [5]: about 100 mg/cc
protein binding ([6]; in vivo): approximately 21%
oral bioavailability ([6]; oral): 5-40%
duration of action [3]: ~24 h
blocking action, receptor preference [7]: strong preferential blocking action
pKa ([8]; at amine functional group): 8.4
pKa ([8]; at phenol functional group): 10.3
solubility in acetone [9]: less soluble
dissolution in the solvents [9]: dissolved completely

Meperidine
Equianalgesic Doses of Opioids, Calculated Dose [1]: 135.0 mg

COc1ccc2c3c1OC1C(=O)CC[C@H]4[C@@H](C2)N(C)CC[C@]314 (some centres unmarked) [Hydrocodone, 4,5-epoxy-3-methoxy-17-methylmorphinan-6-one]
% Precipitated ([4]; diluent pH 7.1): 8%
% Precipitated ([4]; diluent pH 8.0): 12%
% Precipitated ([4]; diluent pH 9.0): 27%
% Precipitated ([4]; diluent pH 10.0): 28%
% Precipitated ([4]; diluent pH 11.0): 21%
% Precipitated ([4]; diluent pH 12.0): 83%
% Precipitated ([4]; diluent pH 12.7): 81%
extractable from the tablets at the higher pH's [4]: about 80%
Equianalgesic Doses of Opioids, Calculated Dose [1]: 15.0 mg
pKa ([8]; at amine functional group): 9.2
solubility in acetone [9]: less soluble
dissolution in the solvents [9]: dissolved completely

CN1CC[C@]23CCCC[C@H]2[C@H]1Cc1ccc(O)cc13 [Levorphanol]
Equianalgesic Doses of Opioids, Calculated Dose [1]: 1.8 mg

COc1ccc2c3c1O[C@H]1C(=O)CC[C@@]4(O)[C@@H](C2)N(C)CC[C@]314 [Oxycodone]
% Precipitated ([10]; diluent Ethanol): 13%
% Precipitated ([10]; diluent IPA): 86%
% Precipitated ([10]; diluent Methanol): 13%
% Precipitated ([10]; diluent pH 6.9): 6%
% Precipitated ([10]; diluent pH 8.1): 87%
% Precipitated ([10]; diluent pH 9.4): 98%
% Precipitated ([10]; diluent pH 10.2): 98%
% Precipitated ([10]; diluent pH 11.0): 98%
% Precipitated ([10]; diluent pH 11.9): 98%
% Precipitated ([10]; diluent pH 12.8): 98%
Equianalgesic Doses of Opioids, Calculated Dose [1]: 13.5 mg
